Two molecules from patent US11607378B2, “Cosmetic composition comprising amide-based compound” (Neopharm Co., Ltd., priority 2020, dated 2023) can be followed below.

One assay has as its system p16^INK4A. As to the kind of experiment: Expression level of p16^INK4A by Western blot after blue light. It is filed as cell-based. The conditions noted are these: human dermal fibroblasts, blue light 40 J/cm^2, sample 100 μM, 24 hours, Western blot (FIG. 1). The protocol: (1) An expression level of p16^INK4A was determined through Western blot in Examples and Comparative Examples of the present invention.
Specifically, human dermal fibroblasts were cultured in a 12-well plate containing a Dulbecco's modified eagle medium (DMEM) medium supplemented with 10% fetal bovine serum (FBS) to attach 1.5×10^5 (1 mL/well) human dermal fibroblasts to the 12-well plate. The human dermal fibroblasts were cultured for 24 hours, and the medium was replaced with a 1% fetal bovine serum medium. Then, the human dermal fibroblasts were exposed to blue light of 40 J/cm^2, and then treated with each of the samples (100 μM) of Examples and Comparative Examples. Thereafter, the cells were additionally cultured at 37° C. for 24 hours. Then, the cells were recovered, and each of these samples was subjected to Western blot to analyze an expression level of p16^INK4A in the dermal fibroblasts. Each of samples of Examples 1 and 2 and Comparative Example 1 including the amide-based compound having a structure shown in the following Table 1 was used as the sample.
The control of FIG. 1 represents an experimental group in which the cells were not treated with the sample, and (-) represents a result of the experimental group exposed to blue light.

In assay [1] the test system is reactive oxygen species (ROS) in dermal fibroblasts. The assay is described as follows: Effect of removing reactive oxygen species (ROS), DCF-DA fluorescence image. The assay is classed as cell-based, human. The conditions noted are these: blue light 40 J/cm^2, sample 100 μM, 24 hours, DCF-DA (FIG. 2). The protocol: An effect of removing the reactive oxygen species was determined for the samples of Examples and Comparative Examples of the present invention.
An image analysis for generation of reactive oxygen species (ROS) in the cells was carried out by seeding 1×10^5 (100 μL/well) dermal fibroblasts in a 12-well plate to which a cover slip was attached. The dermal fibroblasts were exposed to blue light of 40 J/cm^2, and then treated with each of the samples (100 μM) of Examples and Comparative Examples. Then, the cells were additionally cultured at 37° C. for 24 hours.
After 24 hours, 100 μM DCF-DA was put into each well, and the cells were cultured at 37° C. for 45 minutes. After the cells were washed with PBS, the stained cells were put on a microscope slide containing a mounting medium. A microscopic image was observed as a fluorescent microscopic image.

In assay [2] the test system is superoxide dismutase (SOD). As to the kind of experiment: Effect on antioxidant activity (Superoxide Dismutase Activity Assay kit) after blue light. The assay is classed as cell-based, human. The conditions noted are these: dermal fibroblasts, blue light 40 J/cm^2, sample 100 μM, 48 hours (FIG. 3). The protocol:
Effects of the samples of Examples and Comparative Examples of the present invention on a change in antioxidant activity after irradiation with blue light were confirmed.
Specifically, 1.5×10^5 (1 mL/well) dermal fibroblasts were seeded in a 6-well plate, and cultured for 24 hours. The dermal fibroblasts were exposed to blue light of 40 J/cm^2, and then treated with each of the samples (100 μM) of Examples and Comparative Examples. After 48 hours, the cells were recovered. The cells were dissolved in a cell lysis buffer (pH 7.4) containing 0.1 M Tris/HCl, 0.5% Triton X-100, 5 mM β-ME, and 0.1 mg/ml PMSF, and a supernatant separated by centrifugation was then analyzed using a Superoxide Dismutase Activity Assay kit (ab65354). Then, the absorbance was measured at a wavelength of 450 nm in a microplate reader.

The test system of assay [3] is carbonylated protein in artificial skin (EpiDermFT). As to the kind of experiment: Effect on generation of carbonylated protein in artificial skin (DNPH assay, ICC staining). The assay is classed as cell-based. The conditions noted are these: sample 0.3% 50 μL, blue light 40 J/cm^2, 48 hours, image J quantification (FIG. 4). The protocol:
An artificial skin (EpiDermFT™ from MatTek, Ashland, USA) was purchased, and then stabilized for 18 hours in an exclusive medium (EFT-400). 50 μL of each of the samples of Examples and Comparative Examples was applied to the artificial skin at a concentration of 0.3%, and then cultured for an hour. The artificial skin was exposed to blue light of 40 J/cm^2. After 48 hours, the artificial skin tissue was fixed in 10% formaldehyde, and embedded into paraffin. Thereafter, the tissue was microtomed into sections with a size of […]. Then, the microtomed tissue was used to confirm an effect on a change in activity of the carbonylated protein.
The tissue was stained by a DNPH assay using an immunocytochemical (ICC) staining method, and then observed in a fluorescent microscopic image. Thereafter, the microscopic image was digitized using an image J program.

As for `CCCCC(CC)C(=O)NC(CO)CO` (centres unmarked) [Comparative Example 1, N-(1,3-dihydroxypropan-2-yl)-2-ethylhexanamide, reference compound], the “expression level of p16^INK4A” value with p16^INK4A was 120%. In assay [1], the “inhibiting the generation of reactive oxygen species and removing the generated reactive oxygen species” value is recorded as “did not exhibit a significant effect”.
For the molecule `CCCCC(C)C(=O)NCCO` (centres unmarked) [Example 2, N-(2-hydroxyethyl)-2-methyl-hexanamide], the “expression level of p16^INK4A” value with p16^INK4A was determined as 53.9%. In assay [2], the “SOD activity (which had been reduced by 32.64% by blue light)” value amounted to 92.3%. Also, the “carbonylated protein (which had increased by 72.04% by blue light)” value in assay [3] is 16.67%.
